# Molecular target: T1, Toll-like receptor 9 (Homo sapiens, UniProt Q9NR96)
# T1 sequence (Q9NR96 whole entry): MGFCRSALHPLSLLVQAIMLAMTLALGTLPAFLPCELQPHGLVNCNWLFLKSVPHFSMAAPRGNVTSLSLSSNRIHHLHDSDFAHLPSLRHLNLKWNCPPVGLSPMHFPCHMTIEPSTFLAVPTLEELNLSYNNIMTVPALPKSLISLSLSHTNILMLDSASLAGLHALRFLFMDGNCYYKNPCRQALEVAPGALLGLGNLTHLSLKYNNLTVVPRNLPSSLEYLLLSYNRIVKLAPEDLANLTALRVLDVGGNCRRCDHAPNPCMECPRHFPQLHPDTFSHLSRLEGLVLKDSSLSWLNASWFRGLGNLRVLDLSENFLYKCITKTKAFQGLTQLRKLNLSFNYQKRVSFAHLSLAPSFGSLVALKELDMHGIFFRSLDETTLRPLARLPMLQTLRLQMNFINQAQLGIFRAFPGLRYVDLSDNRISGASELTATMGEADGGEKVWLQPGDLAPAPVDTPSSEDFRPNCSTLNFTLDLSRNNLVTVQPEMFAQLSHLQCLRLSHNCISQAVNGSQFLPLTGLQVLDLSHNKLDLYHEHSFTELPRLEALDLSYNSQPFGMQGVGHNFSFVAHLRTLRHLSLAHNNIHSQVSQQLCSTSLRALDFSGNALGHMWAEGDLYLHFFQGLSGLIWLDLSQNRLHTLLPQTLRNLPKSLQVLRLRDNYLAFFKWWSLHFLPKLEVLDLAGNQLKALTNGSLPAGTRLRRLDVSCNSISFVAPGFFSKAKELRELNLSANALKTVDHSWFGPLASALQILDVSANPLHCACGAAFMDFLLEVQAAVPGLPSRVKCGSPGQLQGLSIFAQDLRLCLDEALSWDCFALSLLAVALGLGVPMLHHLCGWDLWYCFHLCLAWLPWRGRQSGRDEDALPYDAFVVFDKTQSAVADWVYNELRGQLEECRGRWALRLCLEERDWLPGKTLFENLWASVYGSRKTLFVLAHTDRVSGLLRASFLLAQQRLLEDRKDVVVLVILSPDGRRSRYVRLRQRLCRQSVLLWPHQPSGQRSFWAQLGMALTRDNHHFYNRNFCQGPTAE
# Assay: Inhibition of human TLR9 expressed in HEK-Blue cells assessed as inhibition of ODN2006-induced NF-kappaB and AP-1 activation measured after 20 hrs by quanti-blue based SEAP reporter gene assay
# Format: cell-based, HEK-Blue hTLR9
smiles,measurement,value
[2H]c1ccc2c(N3CC4CN(c5ncc(N6CCOC[C@H](N)C6)cc5C)CCN4[C@@H](C)C3)ccc(C#N)c2n1 (some centres not stated),IC50,70 nM
C[C@@H]1CN(c2ccc(C#N)c3ncccc23)C[C@@H]2CN(c3cccc4c3CCNC4)CCN21,IC50,54 nM

# From ChEMBL document CHEMBL4673381, “Novel Hexahydro-1H-Pyrazino[1,2-a]pyrazine Compounds for Treating Autoimmune Diseases” (ACS Med Chem Lett, 2021)
